Measurements as given in PMC5218480 (PLoS ONE, 2017).

Tested on: MV-4-11 cells
Test: Gene expression microarray analysis (Affymetrix PrimeView) and GSEA
Format: cell-based, human
Set-up: RFU PODN (11730768_x_at) / Fold change /veh PODN (11730768_x_at) / RFU LINC00158 (11744669_a_at) / Fold change /veh LINC00158 (11744669_a_at) / RFU DUSP10 (11751237_a_at) / Fold change /veh DUSP10 (11751237_a_at) / RFU ID3 (11757404_x_at) / Fold change /veh ID3 (11757404_x_at) / RFU PLEKHG5 (11737974_s_at) / Fold change /veh PLEKHG5 (11737974_s_at) / RFU LRRC4B (11730491_at) / Fold change /veh LRRC4B (11730491_at) / RFU GIMAP4 (11747438_a_at) / Fold change /veh GIMAP4 (11747438_a_at) / RFU KRT8 (11758183_x_at) / Fold change /veh KRT8 (11758183_x_at) / RFU CNN1 (11734310_a_at) / Fold change /veh CNN1 (11734310_a_at) / RFU VPS37D (11726825_at) / Fold change /veh VPS37D (11726825_at) / RFU C10orf10 (11716522_x_at) / Fold change /veh C10orf10 (11716522_x_at) / RFU KIR2DL2 /// KIR2DL4 /// KIR2DL5A /// KIR2DL5B /// KIR2DS1 /// KIR2DS2 /// KIR2DS3 /// KIR2DS4 /// KIR3DL3 /// KIR3DL3 /// KIR3DS1 (11738374_at) / Fold change /veh KIR2DL2 /// KIR2DL4 /// KIR2DL5A /// KIR2DL5B /// KIR2DS1 /// KIR2DS2 /// KIR2DS3 /// KIR2DS4 /// KIR3DL3 /// KIR3DL3 /// KIR3DS1 (11738374_at) / RFU C1QL1 (11718748_at) / Fold change /veh C1QL1 (11718748_at) / RFU TMPRSS4 (11747572_a_at) / Fold change /veh TMPRSS4 (11747572_a_at) / RFU HAMP (11756126_x_at) / Fold change /veh HAMP (11756126_x_at) / RFU RNFT2 (11725882_a_at) / Fold change /veh RNFT2 (11725882_a_at) / RFU NR4A2 (11747474_a_at) / Fold change /veh NR4A2 (11747474_a_at) / RFU ABCC12 (11746883_a_at) / Fold change /veh ABCC12 (11746883_a_at) / RFU TMEM136 (11760407_x_at) / Fold change /veh TMEM136 (11760407_x_at) / RFU CLDN22 /// WWC2 (11732394_at) / Fold change /veh CLDN22 /// WWC2 (11732394_at) / RFU HLA-DPB1 (11760878_x_at) / Fold change /veh HLA-DPB1 (11760878_x_at) / RFU SPINT1 (11716480_a_at) / Fold change /veh SPINT1 (11716480_a_at) / RFU GAP43 (11754022_s_at) / Fold change /veh GAP43 (11754022_s_at) / RFU A4GNT (11735810_at) / Fold change /veh A4GNT (11735810_at) / RFU PRB3 (11715151_x_at) / Fold change /veh PRB3 (11715151_x_at) / RFU TUBB4B (11761932_at) / Fold change /veh TUBB4B (11761932_at) / RFU CAPN14 (11732068_a_at) / Fold change /veh CAPN14 (11732068_a_at) / RFU TMCC2 (11721928_a_at) / Fold change /veh TMCC2 (11721928_a_at) / RFU IRGQ (11745062_a_at) / Fold change /veh IRGQ (11745062_a_at) / RFU FAM174B (11720279_a_at) / Fold change /veh FAM174B (11720279_a_at) / RFU TMPRSS4 (11748680_a_at) / Fold change /veh TMPRSS4 (11748680_a_at) / RFU FAM212B (11763350_a_at) / Fold change /veh FAM212B (11763350_a_at) / RFU PLEKHG5 (11743358_a_at) / Fold change /veh PLEKHG5 (11743358_a_at) / RFU ZSCAN30 (11745921_a_at) / Fold change /veh ZSCAN30 (11745921_a_at) / RFU CMKLR1 (11741424_a_at) / Fold change /veh CMKLR1 (11741424_a_at) / RFU LOC101060620 /// MAPK8IP1 (11723275_at) / Fold change /veh LOC101060620 /// MAPK8IP1 (11723275_at) / RFU SPTSSB (11747773_x_at) / Fold change /veh SPTSSB (11747773_x_at) / RFU PRSS12 (11739890_at) / Fold change /veh PRSS12 (11739890_at) / RFU BIN1 (11741810_x_at) / Fold change /veh BIN1 (11741810_x_at) / RFU WNT11 (11732464_a_at) / Fold change /veh WNT11 (11732464_a_at) / RFU C10orf10 (11716521_a_at) / Fold change /veh C10orf10 (11716521_a_at) / RFU C5orf56 (11738089_at) / Fold change /veh C5orf56 (11738089_at) / RFU CYB561 (11721691_x_at) / Fold change /veh CYB561 (11721691_x_at) / RFU ANKRD19P (11752326_a_at) / Fold change /veh ANKRD19P (11752326_a_at) / RFU OR2T12 /// OR2T33 /// OR2T8 (11738714_s_at) / Fold change /veh OR2T12 /// OR2T33 /// OR2T8 (11738714_s_at) / RFU VCAN (11748164_a_at) / Fold change /veh VCAN (11748164_a_at) / RFU JSRP1 (11732532_at) / Fold change /veh JSRP1 (11732532_at) / RFU KRTAP10-11 (11738290_x_at) / Fold change /veh KRTAP10-11 (11738290_x_at) / RFU MYO3A (11730013_a_at) / Fold change /veh MYO3A (11730013_a_at) / RFU EBF3 (11725865_a_at) / Fold change /veh EBF3 (11725865_a_at) / RFU CAMK2N1 (11719241_x_at) / Fold change /veh CAMK2N1 (11719241_x_at) / RFU C5orf56 (11738088_a_at) / Fold change /veh C5orf56 (11738088_a_at) / RFU OLFML3 (11715873_a_at) / Fold change /veh OLFML3 (11715873_a_at) / RFU LOC100653217 /// NTM (11731650_a_at) / Fold change /veh LOC100653217 /// NTM (11731650_a_at) / RFU MAPK11 (11762145_a_at) / Fold change /veh MAPK11 (11762145_a_at) / RFU FIZ1 (11724087_x_at) / Fold change /veh FIZ1 (11724087_x_at) / RFU OASL (11726364_x_at) / Fold change /veh OASL (11726364_x_at) / RFU SOX15 (11748057_x_at) / Fold change /veh SOX15 (11748057_x_at) / RFU CD79A (11719716_a_at) / Fold change /veh CD79A (11719716_a_at) / RFU HIST1H1D (11736915_at) / Fold change /veh HIST1H1D (11736915_at) / RFU CASKIN2 (11723855_a_at) / Fold change /veh CASKIN2 (11723855_a_at) / RFU LOC730098 (11760151_x_at) / Fold change /veh LOC730098 (11760151_x_at) / RFU OR4N2 (11742367_at) / Fold change /veh OR4N2 (11742367_at) / RFU PRRT2 (11749266_a_at) / Fold change /veh PRRT2 (11749266_a_at) / RFU SNX32 (11753110_a_at) / Fold change /veh SNX32 (11753110_a_at) / RFU CDHR5 (11726645_a_at) / Fold change /veh CDHR5 (11726645_a_at) / RFU RCAN1 (11760418_a_at) / Fold change /veh RCAN1 (11760418_a_at) / RFU FAM167A (11723789_a_at) / Fold change /veh FAM167A (11723789_a_at) / RFU FAM26E (11764081_at) / Fold change /veh FAM26E (11764081_at) / RFU ISYNA1 (11749810_s_at) / Fold change /veh ISYNA1 (11749810_s_at) / RFU ACY1 (11761880_at) / Fold change /veh ACY1 (11761880_at) / RFU 11764098_at / Fold change /veh 11764098_at / RFU SAMD14 (11745864_x_at) / Fold change /veh SAMD14 (11745864_x_at) / RFU NPB (11741838_a_at) / Fold change /veh NPB (11741838_a_at) / RFU TMPRSS6 (11731388_a_at) / Fold change /veh TMPRSS6 (11731388_a_at) / RFU KRTAP10-2 (11738614_at) / Fold change /veh KRTAP10-2 (11738614_at) / RFU ARHGAP8 /// PRR5-ARHGAP8 (11727945_x_at) / Fold change /veh ARHGAP8 /// PRR5-ARHGAP8 (11727945_x_at) / RFU KRTAP5-7 /// NADSYN1 (11734609_at) / Fold change /veh KRTAP5-7 /// NADSYN1 (11734609_at) / RFU RASL12 (11751679_a_at) / Fold change /veh RASL12 (11751679_a_at) / RFU CDKN2B (11736163_a_at) / Fold change /veh CDKN2B (11736163_a_at) / RFU PRF1 (11729649_at) / Fold change /veh PRF1 (11729649_at) / RFU, ZNF638 /// ZNF638-IT1 / Fold change vs veh, ZNF638 /// ZNF638-IT1 / RFU, PANK3 / Fold change vs veh, PANK3 / RFU, SH3YL1 / Fold change vs veh, SH3YL1 / RFU, ZEB2 / Fold change vs veh, ZEB2 / RFU, NRIP1 / Fold change vs veh, NRIP1 / RFU, PTTG1IP / Fold change vs veh, PTTG1IP / RFU, CAPN2 / Fold change vs veh, CAPN2 / RFU, MED14 / Fold change vs veh, MED14 / RFU, SNORA58 / Fold change vs veh, SNORA58 / RFU, C1orf63 / Fold change vs veh, C1orf63 / RFU, LRRFIP1 / Fold change vs veh, LRRFIP1 / RFU, NDUFAF7 / Fold change vs veh, NDUFAF7 / RFU, SLC12A2 / Fold change vs veh, SLC12A2 / RFU, IBTK / Fold change vs veh, IBTK / RFU, ESF1 / Fold change vs veh, ESF1 / Fold change vs veh, TMEM50B / RFU, TAOK1 / Fold change vs veh, TAOK1 / RFU, ACBD3 / Fold change vs veh, ACBD3 / RFU, TMA16 / Fold change vs veh, TMA16 / RFU, RWDD3 / Fold change vs veh, RWDD3 / RFU, BCAT1 / Fold change vs veh, BCAT1 / RFU, EDEM3 / Fold change vs veh, EDEM3 / RFU, TMEM33 / Fold change vs veh, TMEM33 / RFU, WDR75 / Fold change vs veh, WDR75 / RFU, AHCTF1 / Fold change vs veh, AHCTF1 / RFU, TFRC / Fold change vs veh, TFRC / RFU, ZDHHC17 / Fold change vs veh, ZDHHC17 / RFU, NOM1 / Fold change vs veh, NOM1 / RFU, ARL8B / Fold change vs veh, ARL8B / RFU, ZBTB11 / Fold change vs veh, ZBTB11 / RFU, TAMM41 / Fold change vs veh, TAMM41 / RFU, KIAA1704 /// LOC100996395 / Fold change vs veh, KIAA1704 /// LOC100996395 / RFU, ING1 / Fold change vs veh, ING1 / RFU, TRMT61B / Fold change vs veh, TRMT61B / RFU, FUBP3 / Fold change vs veh, FUBP3 / RFU, TP53 / Fold change vs veh, TP53 / RFU, TNKS2 / Fold change vs veh, TNKS2 / RFU, ZFP14 / Fold change vs veh, ZFP14 / RFU, ACTR2 / Fold change vs veh, ACTR2 / RFU, PPP3R1 / Fold change vs veh, PPP3R1 / RFU, PIK3R1 / Fold change vs veh, PIK3R1 / RFU, HNRNPA1 / Fold change vs veh, HNRNPA1 / RFU, RNF170 / Fold change vs veh, RNF170 / RFU, ZNF28 / Fold change vs veh, ZNF28 / RFU, RNGTT / Fold change vs veh, RNGTT / RFU, OGT / Fold change vs veh, OGT / RFU, BRD1 / Fold change vs veh, BRD1 / RFU, MARS / Fold change vs veh, MARS / RFU, ZNF655 / Fold change vs veh, ZNF655 / RFU, FAHD1 / Fold change vs veh, FAHD1 / RFU, BDP1 / Fold change vs veh, BDP1 / RFU, LRRCC1 / Fold change vs veh, LRRCC1 / RFU, ARID1A / Fold change vs veh, ARID1A / RFU, ZNF146 / Fold change vs veh, ZNF146 / RFU, ZNF330 / Fold change vs veh, ZNF330 / RFU, GPN3 / Fold change vs veh, GPN3 / RFU, C9orf123 / Fold change vs veh, C9orf123 / RFU, N4BP2L2 / Fold change vs veh, N4BP2L2 / RFU, ARFIP1 / Fold change vs veh, ARFIP1 / RFU, FAM179B / Fold change vs veh, FAM179B / RFU, BCL10 / Fold change vs veh, BCL10 / RFU, UHRF1BP1L / Fold change vs veh, UHRF1BP1L / RFU, BET1 / Fold change vs veh, BET1 / RFU, CNOT2 / Fold change vs veh, CNOT2 / RFU, ZNF268 / Fold change vs veh, ZNF268 / Fold change vs veh, ZNF507 / RFU, DGCR2 / Fold change vs veh, DGCR2 / RFU, WDSUB1 / Fold change vs veh, WDSUB1 / Fold change vs veh, HSP90B1 /// MIR3652 / RFU, ADSS / Fold change vs veh, ADSS / RFU, GK / Fold change vs veh, GK / RFU, ZNF148 / Fold change vs veh, ZNF148 / RFU, TAF9 / Fold change vs veh, TAF9 / RFU, SLC1A5 / Fold change vs veh, SLC1A5 / RFU, SLMO2 / Fold change vs veh, SLMO2 / RFU, ABCC4 / Fold change vs veh, ABCC4 / RFU, LOC101060439 /// RAP1B / Fold change vs veh, LOC101060439 /// RAP1B / RFU, RFX7 / Fold change vs veh, RFX7 / RFU, GTPBP10 / Fold change vs veh, GTPBP10 / RFU, CNEP1R1 / Fold change vs veh, CNEP1R1 / RFU, BIVM-ERCC5 /// ERCC5 / Fold change vs veh, BIVM-ERCC5 /// ERCC5 / RFU, ILF3 / Fold change vs veh, ILF3 / RFU 11762660_at / Fold change /veh 11762660_at / RFU VCAN (11757783_s_at) / Fold change /veh VCAN (11757783_s_at) / RFU DDX43 (11728927_at) / Fold change /veh DDX43 (11728927_at) / RFU KRT8 (11758188_x_at) / Fold change /veh KRT8 (11758188_x_at) / RFU NKD1 (11759106_at) / Fold change /veh NKD1 (11759106_at) / RFU SRD5A1 (11742802_a_at) / Fold change /veh SRD5A1 (11742802_a_at) / RFU TPSAB1 /// TPSB2 (11721975_s_at) / Fold change /veh TPSAB1 /// TPSB2 (11721975_s_at) / RFU GSTM3 (11746129_a_at) / Fold change /veh GSTM3 (11746129_a_at) / RFU IL23R (11737362_x_at) / Fold change /veh IL23R (11737362_x_at) / RFU TMEM51 (11727254_a_at) / Fold change /veh TMEM51 (11727254_a_at) / RFU PIWIL2 (11732686_x_at) / Fold change /veh PIWIL2 (11732686_x_at) / RFU ORM1 (11744905_x_at) / Fold change /veh ORM1 (11744905_x_at) / RFU CCDC152 (11743942_at) / Fold change /veh CCDC152 (11743942_at) / RFU ECM1 (11717891_a_at) / Fold change /veh ECM1 (11717891_a_at) / RFU IL23R (11748794_a_at) / Fold change /veh IL23R (11748794_a_at) / RFU TNFAIP8L3 (11732012_x_at) / Fold change /veh TNFAIP8L3 (11732012_x_at) / RFU MBOAT4 (11741988_at) / Fold change /veh MBOAT4 (11741988_at) / RFU 11764193_at / Fold change /veh 11764193_at / RFU TMEM53 (11763286_at) / Fold change /veh TMEM53 (11763286_at) / RFU MAGEB2 (11727129_at) / Fold change /veh MAGEB2 (11727129_at) / RFU TMEM200A (11744735_a_at) / Fold change /veh TMEM200A (11744735_a_at) / RFU CCDC152 (11751479_a_at) / Fold change /veh CCDC152 (11751479_a_at) / RFU FAM211A (11726209_a_at) / Fold change /veh FAM211A (11726209_a_at) / RFU RGS16 (11746705_a_at) / Fold change /veh RGS16 (11746705_a_at) / RFU VCAN (11755009_s_at) / Fold change /veh VCAN (11755009_s_at) / RFU RHOB (11743442_s_at) / Fold change /veh RHOB (11743442_s_at) / RFU RGS16 (11720943_a_at) / Fold change /veh RGS16 (11720943_a_at) / RFU RGS16 (11720944_at) / Fold change /veh RGS16 (11720944_at) / RFU, VPS4B / Fold change vs veh, VPS4B / RFU, CREB1 / Fold change vs veh, CREB1 / RFU, DNAJC13 / Fold change vs veh, DNAJC13 / RFU, GNAQ / Fold change vs veh, GNAQ / RFU, CDK5R1 / Fold change vs veh, CDK5R1 / RFU, ZRANB3 / Fold change vs veh, ZRANB3 / RFU, CUL4A / Fold change vs veh, CUL4A / RFU, CCNY / Fold change vs veh, CCNY / RFU, UFL1 / Fold change vs veh, UFL1 / RFU, COG3 / Fold change vs veh, COG3 / RFU, DIAPH2 / Fold change vs veh, DIAPH2 / RFU, SKA2 / Fold change vs veh, SKA2 / RFU, AFF3 / Fold change vs veh, AFF3 / RFU, LMF1 / Fold change vs veh, LMF1 / RFU, IPO11 / Fold change vs veh, IPO11 / RFU, DFFB / Fold change vs veh, DFFB / RFU, FOXP1 / Fold change vs veh, FOXP1 / RFU, CARD8 / Fold change vs veh, CARD8 / RFU, STRN3 / Fold change vs veh, STRN3 / RFU, ADK / Fold change vs veh, ADK / RFU, RASSF2 / Fold change vs veh, RASSF2 / RFU, WIPF1 / Fold change vs veh, WIPF1 / RFU, LARP1B / Fold change vs veh, LARP1B / RFU, RASA1 / Fold change vs veh, RASA1 / RFU, RB1 / Fold change vs veh, RB1 / RFU, PPFIA1 / Fold change vs veh, PPFIA1 / RFU, MAT2A / Fold change vs veh, MAT2A / RFU, CCT5 / Fold change vs veh, CCT5 / RFU, WDR92 / Fold change vs veh, WDR92 / RFU, CUX1 / Fold change vs veh, CUX1 / RFU, TTC7A / Fold change vs veh, TTC7A / RFU, TMEM135 / Fold change vs veh, TMEM135 / RFU, DEPTOR / Fold change vs veh, DEPTOR / RFU, CPM / Fold change vs veh, CPM / RFU, DNAJB6 / Fold change vs veh, DNAJB6 / RFU, CACNA2D3 / Fold change vs veh, CACNA2D3 / RFU, DTX4 / Fold change vs veh, DTX4 / RFU, TFCP2 / Fold change vs veh, TFCP2 / RFU, GMCL1 /// GMCL1P1 / Fold change vs veh, GMCL1 /// GMCL1P1 / RFU, AEBP2 / Fold change vs veh, AEBP2 / RFU, SNHG1 /// SNORD22 /// SNORD25 /// SNORD26 /// SNORD27 /// SNORD28 /// SNORD29 /// SNORD31 / Fold change vs veh, SNHG1 /// SNORD22 /// SNORD25 /// SNORD26 /// SNORD27 /// SNORD28 /// SNORD29 /// SNORD31 / Fold change (Aza/veh), C12orf56 (ProbeSet 11735607_a_at) / Fold change (ACY-1035/veh), C12orf56 (ProbeSet 11735607_a_at) / Fold change (Aza/veh), FGFR1OP (ProbeSet 11751329_s_at) / Fold change (ACY-1035/veh), FGFR1OP (ProbeSet 11751329_s_at) / Fold change (Aza/veh), VPS36 (ProbeSet 11739960_a_at) / Fold change (ACY-1035/veh), VPS36 (ProbeSet 11739960_a_at) / RFU SYPL1 (11715823_x_at) / Fold change /veh SYPL1 (11715823_x_at) / RFU IGFBP7 (11715501_s_at) / Fold change /veh IGFBP7 (11715501_s_at) / RFU REEP3 (11722064_at) / Fold change /veh REEP3 (11722064_at) / RFU IGLL1 (11728026_x_at) / Fold change /veh IGLL1 (11728026_x_at): dose or concentration left out as unconfirmed
Settings: MV-4-11 cells, 48 hours

## Nc1ccc(-c2cccs2)cc1NC(=O)c1ccc2c(c1)cc(C1CC1)n2CCN1CCOCC1 [ACY-1035]
  Fold change /veh KIR2DL2 /// KIR2DL4 /// KIR2DL5A /// KIR2DL5B /// KIR2DS1 /// KIR2DS2 /// KIR2DS3 /// KIR2DS4 /// KIR3DL3 /// KIR3DL3 /// KIR3DS1 (11738374_at): 0.96
